For orientation: EC50 means the concentration giving half of the maximal effect.

Read-outs that look alike come from different tables or passages of the source.

2 compounds from patent US11458212B2, “Molecular imaging of cancer cells in vivo” (H. Lee Moffitt Cancer Center and Research Institute, Inc., priority 2011, dated 2022) can be followed below.

This test has as its target TLR2 (Homo sapiens, UniProt O60603). Kind of test: In vitro TLR2 functional bioassay (NF-κB luciferase, HEK293/hTLR2 cells). More on the design: host or cells: HEK293 stably transfected with pUNO-hTLR2, transiently transfected with the pNifty-Luc reporter. The format is cell-based. The source says:
In Vitro TLR2 Functional Bioassay The in vitro TLR2 functional bioassay was developed and optimized for use in screening soluble compound libraries to identify both TLR2 agonists and antagonists. In this study, the TLR2 functional bioassay was used as a fast high throughput screening to identify TLR2 agonist ligands by measuring the inducing activity of NF-κB. HEK293/hTLR2 cells, highly overexpressing human TLR2, were used along with the parental HEK293, cells as a negative control. Cells were seeded at a density of 40,000 per well using a WellMate® Microplate dispenser (Thermo Fischer Scientific/Matrix) in black 96-well plates with opaque white wells (Perkin Elmer Wallac, Waltham, Mass.) and then incubated at 37° C. On day 2, the cells were transiently transfected with pNifty-Luc (InvivoGen), an NF-κB inducible reporter plasmid expressing the luciferase reporter gene (Zuany-Amorim, C., J., et al. Nat Rev Drug Discov, 2002. 1(10):797-807), using an optimized 4:1 ratio by volume of Fugene® HD Transfection Reagent (Roche Applied Science, Indianapolis, Ind.) to pNifty-Luc plasmid DNA (1 μg/mL). […] On day 4 after 24 hrs of peptide stimulation, luciferase induced activity by the induction of NF-κB was measured. Media was aspirated from the wells using an ELx405 Select plate washer (BioTek, Winooski, Vt.), 150 μg/mL D-luciferin (Gold Biotechnology, St. Louis, Mo.) was dispensed using the microplate dispensor; the plates were incubated at 37° C. for 5 min. The luminescence intensity was measured using the standard luminescence protocol on a Victor™ X4 plate-reader equipped with a plate stacker for readout of multiple plates at a time (PerkinElmer, Waltham, Mass.). For each in vitro TLR2 bioassay, at least three different experiments were performed in triplicate (n=3+). Data were analyzed with GraphPad Prism software and curves were generated with the appropriate nonlinear fit regression analysis.
The in vitro TLR2 functional bioassay was developed and optimized for use in high-throughput screening of soluble compound libraries to identify both TLR2 agonists and antagonists. The bioassay measures the induction of NF-κB signaling via TLR2 in HEK-293/hTLR2 cells and parental HEK-293 cells as a negative control. Cells were seeded at a density of 40,000 per well using a WellMate Microplate dispenser (Thermo Fisher Scientific/Matrix) in black 96-well plates with opaque white wells (PerkinElmer, Waltham, Mass.) and then incubated at 37° C. On day 2, the cells were transiently transfected with pNifty-Luc (InvivoGen, San Diego, Calif.), an NF-κB inducible reporter plasmid expressing the luciferase reporter gene[28] using an optimized 4:1 ratio by volume of FugeneHD Transfection Reagent (Promega, Madison, Wis.) to pNifty-Luc plasmid DNA (1 μg/mL). […] […] On day 4 after 24 h of peptide stimulation, luciferase induced activity by the induction of NF-κB was measured. Media was aspirated from the wells using an ELx405 Select CW plate washer (BioTek, Winooski, Vt.), 150 μg/mL D-luciferin (Gold Biotechnology, St. Louis, Mo.) was dispensed using the microplate dispensor; the plates were incubated at 37° C. for 5 min. The luminescence intensity was measured using the standard luminescence protocol on a Victor X4 Multilabel plate reader equipped with a plate stacker for readout of multiple plates at a time (PerkinElmer, Waltham, Mass.). […] Data were analyzed with GraphPad Prism software and curves were generated with the appropriate nonlinear fit regression analysis.

[1] abbreviates: dose-response 0.001 ng/mL to 10 μg/mL, read-out: TLR2 Agonist Activity EC50.
[2] abbreviates: log(agonist) vs. normalized response, doses 0.01 ng/mL to 1 μg/mL, read-out: EC50.

Chain of TLR2 (O60603 21-784): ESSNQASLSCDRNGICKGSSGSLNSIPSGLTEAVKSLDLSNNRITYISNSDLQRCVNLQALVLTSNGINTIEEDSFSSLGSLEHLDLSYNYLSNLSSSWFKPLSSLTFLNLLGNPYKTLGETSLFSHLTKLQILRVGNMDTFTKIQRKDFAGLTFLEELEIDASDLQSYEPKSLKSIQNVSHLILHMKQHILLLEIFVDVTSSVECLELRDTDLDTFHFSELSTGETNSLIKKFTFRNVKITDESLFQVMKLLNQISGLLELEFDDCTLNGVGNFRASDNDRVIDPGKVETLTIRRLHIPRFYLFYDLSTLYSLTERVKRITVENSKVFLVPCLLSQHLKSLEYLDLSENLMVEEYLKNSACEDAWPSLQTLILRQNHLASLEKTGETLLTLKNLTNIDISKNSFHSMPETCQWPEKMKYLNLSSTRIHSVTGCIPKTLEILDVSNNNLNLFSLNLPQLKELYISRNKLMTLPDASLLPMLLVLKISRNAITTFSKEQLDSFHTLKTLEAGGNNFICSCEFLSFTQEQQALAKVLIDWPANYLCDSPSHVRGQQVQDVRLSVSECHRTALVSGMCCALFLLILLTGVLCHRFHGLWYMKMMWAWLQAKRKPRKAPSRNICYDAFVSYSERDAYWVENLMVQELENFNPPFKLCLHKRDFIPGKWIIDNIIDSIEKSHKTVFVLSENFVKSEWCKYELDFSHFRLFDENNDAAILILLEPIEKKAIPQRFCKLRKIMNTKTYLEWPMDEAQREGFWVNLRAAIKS
Chain of TLR2 (Q9Y2C9 32-796 partner): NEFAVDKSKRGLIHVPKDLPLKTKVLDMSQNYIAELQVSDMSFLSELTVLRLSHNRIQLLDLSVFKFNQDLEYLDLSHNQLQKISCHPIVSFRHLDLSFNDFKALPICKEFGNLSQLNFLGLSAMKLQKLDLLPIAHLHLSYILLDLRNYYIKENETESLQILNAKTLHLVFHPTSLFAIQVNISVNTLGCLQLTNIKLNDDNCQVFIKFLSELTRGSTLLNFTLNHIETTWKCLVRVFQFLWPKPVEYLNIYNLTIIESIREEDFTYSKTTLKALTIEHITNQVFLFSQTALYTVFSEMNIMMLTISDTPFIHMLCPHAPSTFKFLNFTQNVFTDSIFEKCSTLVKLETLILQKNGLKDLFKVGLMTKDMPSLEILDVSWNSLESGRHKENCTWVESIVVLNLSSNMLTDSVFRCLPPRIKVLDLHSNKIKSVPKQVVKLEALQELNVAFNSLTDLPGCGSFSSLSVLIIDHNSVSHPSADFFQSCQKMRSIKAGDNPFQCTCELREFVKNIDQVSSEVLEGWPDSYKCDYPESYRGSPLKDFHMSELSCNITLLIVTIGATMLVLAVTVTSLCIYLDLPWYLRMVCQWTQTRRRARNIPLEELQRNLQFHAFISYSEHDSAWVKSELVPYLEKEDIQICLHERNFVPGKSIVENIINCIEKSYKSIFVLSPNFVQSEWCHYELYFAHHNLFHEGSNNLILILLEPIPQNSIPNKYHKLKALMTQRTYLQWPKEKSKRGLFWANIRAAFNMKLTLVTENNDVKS

For the compound `CCCCCCCCCCCCCCCC(=O)OCC(CSC[C@H](N)C(=O)N[C@@H](CO)C(=O)N[C@@H](CCCCN)C(=O)N[C@@H](CCCCN)C(=O)N[C@@H](CCCCN)C(=O)N[C@@H](CCCCN)C(=O)O)OC(=O)CCCCCCCCCCCCCCC` (mixture of isomers) [Pam2CSK4, S-[2,3-bis(palmitoyloxy)-(2RS)-propyl]-[R]-cysteinyl-[S]-seryl-[S]-lysyl-[S]-lysyl-[S]-lysyl-[S]-lysine, reference compound], the EC50 is, setting by setting: under setting [1], 3.7 nM; under setting [2], 3.66 nM.

Consider `CCCCCCCCCCCCCCCC(=O)N[C@@H](CSCC(COC(=O)CCCCCCCCCCCCCCC)OC(=O)CCCCCCCCCCCCCCC)C(=O)N[C@@H](CO)C(=O)N[C@@H](CCCCN)C(=O)N[C@@H](CCCCN)C(=O)N[C@@H](CCCCN)C(=O)N[C@@H](CCCCN)C(=O)O` (mixture of isomers) [Pam3CSK4, N-Palmitoyl-S-[2,3-bis(palmitoyloxy)-(2RS)-propyl]-[R]-cysteinyl-[S]-seryl-[S]-lysyl-[S]-lysyl-[S]-lysyl-[S]-lysine, reference compound], for which the “luciferase activity relative to cells incubated with no ligand” value (24 h post ligand stimulation, n=6) is on record as 50 fold. The EC50 reads like this: under setting [1], 23 nM; under setting [2], 22.5 nM.
